Test: Relationship between pH and decrease of radiochemical purity (storage at 25° C., TLC analysis)
Format: physicochemical
Conditions: pH value not more than 5.9, no pharmaceutical additives or buffers that prevent radiolysis
Experimental: Radioactivity of the obtained stock solution of anti-[^18F]-FACBC was measured, and then the stock solution was diluted with a physiological saline solution so as to have a radioactive concentration of about 510 MBq/mL at the time when experiment was initiated (0 hour in Table 9). 2.23 mL of this solution was aliquoted in a vial of 5 mL in volume, and a predetermined amount of a predetermined solution indicated in Table 8 was added thereto, to obtain a sample solution. The radioactive concentration of the sample solutions at the end of preparation was […].
The sample solution was stored in an electric thermostatic chamber adjusted to 25° C., and was then subjected to TLC analysis which was performed on the following conditions at the time of initiation of the experiment (0 hour) and 8.5 hours after the initiation of the experiment. Values of radiochemical purity were calculated in accordance with the following equation (1). Measurement of the radiochemical purity was repeated three times for each sample solution.
Mobile phase: acetonitrile/water/100% acetic acid=4/1/1
TLC plate: Silica Gel 60F254 (trade name, thickness: 0.25 mm, manufactured by Merck & Co., Inc.)
TLC scanner: Rita Star (manufactured by Raytest)
Number of analysis: Three times

With `NC1(C(=O)O)CC([18F])C1` (centres unmarked) [[^18F]FACBC, 3-[^18F]fluoro-1-aminocyclobutanecarboxylic acid] the stability against radiolysis was “stability thereof is maintained”.

Test: not given
Conditions: Japanese Pharmaceutical Excipients Directory 2000; cited from earlier work

Point of comparison: `OC[C@H]1O[C@H](O[C@H]2[C@H](O)[C@@H](O)[C@H](O)O[C@@H]2CO)[C@H](O)[C@@H](O)[C@@H]1O` [martose], “maximum dose in case of intravenous administration” value 10 g. Against it:
- OC[C@@H](O)[C@@H](O)[C@H](O)[C@@H](O)CO [sorbitol] — lower, 1.5 g
- OC[C@@H](O)[C@@H](O)[C@H](O)[C@H](O)CO [mannitol] — lower, 1.2 g
- O=C(CO)[C@@H](O)[C@H](O)[C@H](O)CO [fructose] — lower, 0.9 g
- OC[C@@H](O)[C@H](O)[C@@H](O)CO [xylitol] — lower, 0.2 g
- OC[C@H]1O[C@@H](O[C@H]2[C@H](O)[C@@H](O)C(O)O[C@@H]2CO)[C@H](O)[C@@H](O)[C@H]1O (some centres unmarked) [lactose] — lower, 1.25 g
- O=C[C@H](O)[C@@H](O)[C@H](O)[C@H](O)CO [glucose] — lower, 8 g

From US8343459B2, “Method for production of radiation diagnostic imaging agent” (Nihon Medi-Physics Co., Ltd., priority 2007, dated 2013)
